Measurements from patent publication US8987198B2, “Compositions and methods for treating obesity and diabetes” (The Administrators of the Tulane Educational Fund, priority 2009, dated 2015).

Key:
[1] = test system: Liver X Receptor in LNCaP Cells; assay: Up-regulation of LXR-responsive genes ABCG1/ABCA1 in LNCaP cells; type: cell-based; conditions: glyceollin at 5 μM for 48 h
Method: LNCaP cells were obtained from the American Type Culture Collection (Manassas, Va.) and maintained in Media A [RPMI 1640 medium with phenol red (Invitrogen, Carlsbad, Calif.), 2 mM L-glutamine (Sigma), 100 U/mL penicillin and 100 μg/mL streptomycin (BioSource International, Camarillo, Calif.) with 10% fetal bovine serum (FBS) (Invitrogen, Carlsbad, Calif.)]. Cells were incubated in the presence of 5% CO2 in air at 37° C.

[2] = test system: 3T3-L1 differentiated adipocytes; assay: [3H]2-deoxyglucose uptake assay in 3T3-L1 adipocytes; type: cell-based, murine; conditions: for glucose uptake after addition of insulin: 0.3 nM insulin + glyceollin; for glucose uptake after addition of insulin / glucose uptake in the absence of insulin: FIG. 17; for glucose uptake in the absence of insulin: 24 h KRH, then 30 min exposure; for insulin-mediated glucose uptake after pre-incubation with glyceollins: 24 hours pre-incubation, 30 min insulin, FIG. 15
Method: Krebs-Ringers-Hepes (KRH) buffer was prepared with 200 mL H2O, 300 μL of 1 M CaCl2, 300 μL of 1.2 M MgSO4, 300 μL of 1 M KH2PO4, 3 mL of 0.14 M KCl, 6 mL of 1 M HEPES in 1.2 M NaHCO3, and 15 mL of 2.6 M NaCl. […] Insulin (MW=5808) stock solution (100 μM) was prepared by dissolving 2.90 mg insulin into 5 mL of 0.01 N HCl. To make working solutions: the stock solution was diluted 1:10 by adding 100 μL stock to 900 μL KRH buffer, giving solution A (10 μM); solution A was diluted by adding 400 μL of solution A to 932 μL KRH buffer, giving solution B (3 μM); solution A was diluted by adding 100 μL of solution A to 900 μL KRH buffer, giving solution C (1 μM); solution B was diluted by adding 100 μL of solution B to 900 μL KRH buffer, giving solution D (300 nM); solution C was diluted by adding 100 μL of solution C to 900 μL KRH buffer, giving solution E (100 nM); solution D was diluted by adding 100 μL of solution D to 900 μL KRH buffer, giving solution F (30 nM); solution E was diluted by adding 100 μL of solution E to 900 μL KRH buffer, giving solution G (10 nM); solution F was diluted by adding 100 μL of solution F to 900 μL KRH buffer, giving solution H (3 nM); solution G was diluted by adding 100 μL of solution G to 900 μL KRH buffer, giving solution I (1 nM); and solution H was diluted by adding 100 μL of solution H to 900 μL KRH buffer, giving solution J (0.3 nM). 100 μL of each concentration was added to each well with a final volume in each well of 1000 μL (1:10 dilution when added to cells). […] This stock solution was kept refrigerated. To make working solutions: 80 μL of the stock solution was diluted with 3920 μL KRH buffer, giving solution A (200 μM); solution A was diluted by adding 500 μL of solution A to 335 μL KRH buffer, giving solution B (120 μM); solution A was diluted by adding 1000 μL of solution A to 1000 μL KRH buffer, giving solution C (100 μM); solution A was diluted by adding 1000 μL of solution A to 1500 μL KRH buffer, giving solution D (80 μM); solution A was diluted by adding 1000 μL of solution A to 2330 μL KRH buffer, giving solution E (60 μM); solution D was diluted by adding 1000 μL of solution D to 1000 μL KRH buffer, giving solution F (40 μM); solution F was diluted by adding 1000 μL of solution F to 1000 μL KRH buffer, giving solution G (20 μM); solution G was diluted by adding 1000 μL of solution G to 1000 μL KRH buffer, giving solution H (10 μM); and solution H was diluted by adding 1000 μL of solution H to 1000 μL KRH buffer, giving solution I (5 μM). 100 μL of each concentration was added to each well with a final volume in each well of 1000 μL (1:10 dilution when added to cells). Unless indicated otherwise (see, e.g., EXAMPLES 14 & 15), where the EXAMPLES below refer to glyceollin, a mixture of glyceollins I, II, and III, was used. Cell culture and differentiation of murine 3T3-L1 cells is a well-accepted model for study of adipocyte differentiation, glucose uptake, and insulin action. These cells undergo a program of differentiation manifest by large lipid droplet accumulation when stimulated by the appropriate hormonal cocktail. The adipocytes express markers such as leptin and adiponectin, express Glut 4, and respond to insulin stimulation by increasing glucose uptake, similar to primary adipocytes. For these experiments, frozen preadipocytes were purchased from Zenbio (Research Triangle Park, N.C.). They were thawed at 37° C., diluted with Zenbio Preadipocyte medium, and incubated in 24-well plates at 37° C. in a humidified atmosphere containing 95% air and 5% CO2 until confluent. Signals derived from confluency were allowed by incubating for 2 more days. Preadipocyte medium was replaced with Zenbio Differentiation Medium and the cells were incubated for 3 additional days; that medium was replaced with Zenbio Adipocyte […] medium for about 2 weeks when greater than 95% of the cells appeared filled with large lipid droplets. […]

Compound: O=c1c(-c2ccc(O)cc2)coc2cc(O)cc(O)c12 [Genistein, genistein]
- fold up-regulation of ABCG1 [1]: 3 fold

Compound: C=C(C)[C@@H]1Cc2cc3c(cc2O1)OC[C@@]1(O)c2ccc(O)cc2O[C@@H]31 [glyceollin III]
- glucose uptake after addition of insulin [2]: further enhanced
- glucose uptake in the absence of insulin [2]: can stimulate glucose uptake in the absence of insulin
- insulin-mediated glucose uptake after pre-incubation with glyceollins [2]: more effective than glyceollin II

Compound: CC1(C)C=Cc2c(ccc3c2OC[C@@]2(O)c4ccc(O)cc4O[C@@H]32)O1 [glyceollin I]
- glucose uptake after addition of insulin [2]: further enhanced
- glucose uptake after 30 minute exposure ([2]; 5 μM, cells pre-incubated 24 h with KRH, FIG. 16): stimulate glucose uptake better than glyceollins II and III
- glucose uptake in the absence of insulin [2]: can stimulate glucose uptake in the absence of insulin
- insulin-mediated glucose uptake after pre-incubation with glyceollins [2]: more effective than glyceollin II

Compound: Oc1ccc2c(c1)OC[C@@]1(O)c3ccc(O)cc3O[C@@H]21 [glycinol, reference compound]
- glucose uptake after 30 minute exposure to glycinol ([2]; 1 μM and 0.1 μM, absence of insulin, FIG. 16 columns 7 and 8): does not present the same bioactivity as glyceollin
- glucose uptake with glycinol ([2]; 5 μM glycinol, 24 h pre-incubation, with or without insulin, FIG. 14): ineffective at stimulating glucose uptake

Compound: insulin [reference compound]
- glucose uptake by insulin alone ([2]; 0.2 nM insulin, FIG. 19 column 2): stimulation of glucose uptake
